Reference: ChEMBL document CHEMBL3885881, “DrugMatrix”

Species on record: Rattus norvegicus
Assay: DrugMatrix - Regimen: Daily Repeat
Format: toxicity, organism-based, Sprague-Dawley
Set-up: regimen Daily Repeat, gender Male, age 6-8 weeks
Conditions: in vivo, po, route oral GAVAGE, vehicle 100 % WATER; for ABSOLUTE BASOPHIL / ABSOLUTE EOSINOPHIL / ABSOLUTE LYMPHOCYTE / ABSOLUTE MONOCYTE / ABSOLUTE SEGMENTED NEUTROPHIL / BASOPHIL / EOSINOPHIL / ERYTHROCYTE COUNT / HEMATOCRIT / HEMOGLOBIN / LEUKOCYTE COUNT / LYMPHOCYTE / MEAN CORPUSCULAR HEMOGLOBIN / MEAN CORPUSCULAR HEMOGLOBIN CONCENTRATION / MEAN CORPUSCULAR VOLUME / MONOCYTE / NEUTROPHIL / NUCLEATED RED BLOOD CELLS / PLATELET COUNT: tissue Blood; for ALANINE AMINOTRANSFERASE / ALBUMIN / ALKALINE PHOSPHATASE / ASPARTATE AMINOTRANSFERASE / BLOOD UREA NITROGEN / CARBON DIOXIDE / CHLORIDE / CHOLESTEROL / CREATINE PHOSPHOKINASE / CREATININE / GLUCOSE / LACTATE DEHYDROGENASE / LIPASE / PHOSPHORUS / POTASSIUM / SODIUM / TOTAL BILIRUBIN / TOTAL PROTEIN / URIC ACID: tissue Plasma
[1] = 31 mg/kg, 120 h, dose level Low, time 5 day
[2] = 2629 mg/kg, 72 h, dose level High, time 3 day
[3] = 2629 mg/kg, 120 h, dose level High, time 5 day

Compound: Nc1ccc(S(=O)(=O)Nc2nccs2)cc1 [SULFATHIAZOLE]
- ABSOLUTE BASOPHIL [1]: 0 CELLS/uL
- ABSOLUTE EOSINOPHIL [1]: 44 CELLS/uL
- ABSOLUTE LYMPHOCYTE [1]: 11208.67 CELLS/uL
- ABSOLUTE MONOCYTE [1]: 0 CELLS/uL
- ABSOLUTE SEGMENTED NEUTROPHIL [1]: 914 CELLS/uL
- BASOPHIL [1]: 0%
- EOSINOPHIL [1]: 0.33%
- ERYTHROCYTE COUNT [1]: 5.37 x10E6/uL
- HEMATOCRIT [1]: 32.6%
- HEMOGLOBIN [1]: 12.8 G/DL
- LEUKOCYTE COUNT [1]: 12.17 x10E3/uL
- LYMPHOCYTE [1]: 92%
- MEAN CORPUSCULAR HEMOGLOBIN [1]: 23.87 pg
- MEAN CORPUSCULAR HEMOGLOBIN CONCENTRATION [1]: 39.27 G/DL
- MEAN CORPUSCULAR VOLUME [1]: 60.87 fL
- MONOCYTE [1]: 0%
- NEUTROPHIL [1]: 7.67%
- NUCLEATED RED BLOOD CELLS [1]: 0 /100WBC
- PLATELET COUNT [1]: 967.33 x10E3/uL
- ALANINE AMINOTRANSFERASE [1]: 55 u/L
- ALBUMIN [1]: 3.97 G/DL
- ALKALINE PHOSPHATASE [1]: 332.33 u/L
- ASPARTATE AMINOTRANSFERASE [1]: 80.33 u/L
- BLOOD UREA NITROGEN [1]: 15.33 mg/dL
- CARBON DIOXIDE [1]: 26.67 mmol/L
- CHLORIDE [1]: 101.67 MEQ/L
- CHOLESTEROL [1]: 68.33 mg/dL
- CREATINE PHOSPHOKINASE [1]: 466 u/L
- CREATININE [1]: 0.16 mg/dL
- GLUCOSE [1]: 230.67 mg/dL
- LACTATE DEHYDROGENASE [1]: 161.67 u/L
- LIPASE [1]: 8.33 u/L
- PHOSPHORUS [1]: 12.43 mg/dL
- POTASSIUM [1]: 5.22 MEQ/L
- SODIUM [1]: 142.17 MEQ/L
- TOTAL BILIRUBIN [1]: 0.13 mg/dL
- TOTAL PROTEIN [1]: 5.83 G/DL
- URIC ACID [1]: 1.13 mg/dL
- ABSOLUTE BASOPHIL [2]: 0 CELLS/uL
- ABSOLUTE EOSINOPHIL [2]: 0 CELLS/uL
- ABSOLUTE LYMPHOCYTE [2]: 13130 CELLS/uL
- ABSOLUTE MONOCYTE [2]: 74.67 CELLS/uL
- ABSOLUTE SEGMENTED NEUTROPHIL [2]: 1895.33 CELLS/uL
- BASOPHIL [2]: 0%
- EOSINOPHIL [2]: 0%
- ERYTHROCYTE COUNT [2]: 6.25 x10E6/uL
- HEMATOCRIT [2]: 39.77%
- HEMOGLOBIN [2]: 15.4 G/DL
- LEUKOCYTE COUNT [2]: 15.1 x10E3/uL
- LYMPHOCYTE [2]: 87%
- MEAN CORPUSCULAR HEMOGLOBIN [2]: 24.67 pg
- MEAN CORPUSCULAR HEMOGLOBIN CONCENTRATION [2]: 38.77 G/DL
- MEAN CORPUSCULAR VOLUME [2]: 63.6 fL
- MONOCYTE [2]: 0.67%
- NEUTROPHIL [2]: 12.33%
- NUCLEATED RED BLOOD CELLS [2]: 0.33 /100WBC
- PLATELET COUNT [2]: 1369.33 x10E3/uL
- ALANINE AMINOTRANSFERASE [2]: 62 u/L
- ALBUMIN [2]: 3.93 G/DL
- ALKALINE PHOSPHATASE [2]: 291 u/L
- ASPARTATE AMINOTRANSFERASE [2]: 83 u/L
- BLOOD UREA NITROGEN [2]: 13.33 mg/dL
- CARBON DIOXIDE [2]: 23.67 mmol/L
- CHLORIDE [2]: 105.33 MEQ/L
- CHOLESTEROL [2]: 68.67 mg/dL
- CREATINE PHOSPHOKINASE [2]: 777 u/L
- CREATININE [2]: 0.18 mg/dL
- GLUCOSE [2]: 146.67 mg/dL
- LACTATE DEHYDROGENASE [2]: 269.33 u/L
- LIPASE [2]: 9.33 u/L
- PHOSPHORUS [2]: 12.5 mg/dL
- POTASSIUM [2]: 5.42 MEQ/L
- SODIUM [2]: 148.07 MEQ/L
- TOTAL BILIRUBIN [2]: 0.1 mg/dL
- TOTAL PROTEIN [2]: 5.7 G/DL
- URIC ACID [2]: 2.33 mg/dL
- ABSOLUTE BASOPHIL [3]: 0 CELLS/uL
- ABSOLUTE EOSINOPHIL [3]: 30.33 CELLS/uL
- ABSOLUTE LYMPHOCYTE [3]: 11698 CELLS/uL
- ABSOLUTE MONOCYTE [3]: 241.67 CELLS/uL
- ABSOLUTE SEGMENTED NEUTROPHIL [3]: 1363.33 CELLS/uL
- BASOPHIL [3]: 0%
- EOSINOPHIL [3]: 0.33%
- ERYTHROCYTE COUNT [3]: 6.23 x10E6/uL
- HEMATOCRIT [3]: 38.77%
- HEMOGLOBIN [3]: 14.67 G/DL
- LEUKOCYTE COUNT [3]: 13.33 x10E3/uL
- LYMPHOCYTE [3]: 87%
- MEAN CORPUSCULAR HEMOGLOBIN [3]: 23.53 pg
- MEAN CORPUSCULAR HEMOGLOBIN CONCENTRATION [3]: 37.83 G/DL
- MEAN CORPUSCULAR VOLUME [3]: 62.27 fL
- MONOCYTE [3]: 2%
- NEUTROPHIL [3]: 10.67%
- NUCLEATED RED BLOOD CELLS [3]: 0.33 /100WBC
- PLATELET COUNT [3]: 1447 x10E3/uL
- ALANINE AMINOTRANSFERASE [3]: 59.33 u/L
- ALBUMIN [3]: 4.2 G/DL
- ALKALINE PHOSPHATASE [3]: 266.67 u/L
- ASPARTATE AMINOTRANSFERASE [3]: 58 u/L
- BLOOD UREA NITROGEN [3]: 14.33 mg/dL
- CARBON DIOXIDE [3]: 21.33 mmol/L
- CHLORIDE [3]: 105 MEQ/L
- CHOLESTEROL [3]: 64.33 mg/dL
- CREATINE PHOSPHOKINASE [3]: 224.67 u/L
- CREATININE [3]: 0.24 mg/dL
- GLUCOSE [3]: 148.67 mg/dL
- LACTATE DEHYDROGENASE [3]: 185.33 u/L
- LIPASE [3]: 11.33 u/L
- PHOSPHORUS [3]: 9.7 mg/dL
- POTASSIUM [3]: 5.17 MEQ/L
- SODIUM [3]: 145.03 MEQ/L
- TOTAL BILIRUBIN [3]: 0.1 mg/dL
- TOTAL PROTEIN [3]: 6 G/DL
- URIC ACID [3]: 1.37 mg/dL
